Counter-ions that a name gives are not always drawn.
The compounds below were run against CK2A1 (CK2α/β) (Homo sapiens, UniProt P68400) (assay: CK2 kinase assay, CK2A1 (CK2α/β)). Settings: Table A; read-out: CK2A1 (CK2α/β) (IC50).
Type: biochemical

Sequence of CK2A1 (CK2α/β) (P68400 whole entry, species assumed): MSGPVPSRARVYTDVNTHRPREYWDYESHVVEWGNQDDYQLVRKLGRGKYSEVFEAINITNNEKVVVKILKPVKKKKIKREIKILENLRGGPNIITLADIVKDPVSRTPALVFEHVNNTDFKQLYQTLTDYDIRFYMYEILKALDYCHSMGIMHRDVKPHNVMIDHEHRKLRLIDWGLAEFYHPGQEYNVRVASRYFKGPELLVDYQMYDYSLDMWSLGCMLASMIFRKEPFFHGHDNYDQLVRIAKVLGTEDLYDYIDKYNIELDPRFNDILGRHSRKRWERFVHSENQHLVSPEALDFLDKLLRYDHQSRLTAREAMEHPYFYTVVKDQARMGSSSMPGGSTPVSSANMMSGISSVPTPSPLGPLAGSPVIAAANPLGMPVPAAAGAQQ
Sequence of CK2A1 (CK2α/β) (P67870 whole entry partner, species assumed): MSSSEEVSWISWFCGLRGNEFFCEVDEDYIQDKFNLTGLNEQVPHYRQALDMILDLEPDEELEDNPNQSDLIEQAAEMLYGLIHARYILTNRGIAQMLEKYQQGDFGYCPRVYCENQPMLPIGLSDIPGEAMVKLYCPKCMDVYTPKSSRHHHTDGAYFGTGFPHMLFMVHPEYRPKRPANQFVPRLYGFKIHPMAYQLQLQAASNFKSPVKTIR

Row | Structure (SMILES) | IC50 [nM]
1 | CN1CCN(C2CN(c3cc(C(F)F)cc(Nc4nc(NC5CC5)c5ncc(C#N)n5n4)c3Cl)C2)CC1 [Example 278, 2-((2-chloro-5-(difluoromethyl)-3-(3-(4-methyl-1-piperazinyl)-1-azetidinyl)phenyl)amino)-4-(cyclopropylamino)imidazo[2,1-f][1,2,4]triazine-7-carbonitrile] | 0.86
2 | CO[C@@H]1CN(c2cc(C#N)cc(Nc3nc(NC4CC4)c4ncc(C#N)n4n3)c2Cl)C[C@@H]1N [Example 30, 2-((3-((3S,4R)-3-amino-4-methoxy-1-pyrrolidinyl)-2-chloro-5-cyanophenyl)amino)-4-(cyclopropylamino)imidazo [2,1-f][1,2,4]triazine-7-carbonitrile] | 0.92
3 | N#Cc1cc(Nc2nc(NC3CC3)c3ncc(C#N)n3n2)c(Cl)c(N2CC[C@@H](NC3COC3)C2)c1 [Example 44, 2-((2-chloro-5-cyano-3-((3R)-3-(3-oxetanylamino)-1-pyrrolidinyl)phenyl)amino)-4-(cyclopropylamino)imidazo [2,1-f][1,2,4]triazine-7-carbonitrile] | 0.33
4 | CCNc1nc(Nc2cc(C#N)cc(N3CC[C@@H](NC(=O)OC)[C@H](OC(=O)[C@H](C)OP(=O)(O)O)C3)c2Cl)nn2c(C#N)cnc12 [Example 340, (S)-(3R,4R)-1-(2-chloro-5-cyano-3-((7-cyano-4-(ethylamino)imidazo[2,1-f][1,2,4]triazin-2-yl)amino)phenyl)-4-((methoxycarbonyl)amino)piperidin-3-yl 2-(phosphonooxy)propanoate] | 6
5 | CCNc1nc(Nc2cc(C#N)cc(C3CCN(C[C@H](C)O)CC3)c2Cl)nn2c(C#N)cnc12 [Example 214, 2-((2-chloro-5-cyano-3-(1-((2S)-2-hydroxypropyl)-4-piperidinyl)phenyl)amino)-4-(ethylamino)imidazo[2,1-f][1,2,4]triazine-7-carbonitrile] | 4.55
6 | COC(=O)N[C@H]1CN(C2CN(c3cc(C#N)cc(Nc4nc(NC5CC5)c5ncc(C#N)n5n4)c3Cl)C2)C[C@@H]1OC (racemic) [Example 297, (+/−) methyl ((3S,4S)-1-(1-(2-chloro-5-cyano-3-((7-cyano-4-(cyclopropylamino)imidazo[2,1-f][1,2,4]triazin-2-yl)amino)phenyl)-3-azetidinyl)-4-methoxy-3-pyrrolidinyl)carbamate] | 3.05
7 | CC[C@H]1CN(c2cc(C#N)cc(Nc3nc(NC4CC4)c4ncc(C#N)n4n3)c2Cl)CC[C@H]1NC(=O)OC (racemic) [Example 296, (+/−) methyl ((3S,4R)-1-(2-chloro-5-cyano-3-((7-cyano-4-(cyclopropylamino)imidazo[2,1-f][1,2,4]triazin-2-yl)amino)phenyl)-3-ethyl-4-piperidinyl)carbamate] | 0.94
8 | COC(CO)CNC1CN(c2cc(C(F)F)cc(Nc3nc(NC4CC4)c4ncc(C#N)n4n3)c2Cl)C1 (racemic) [Example 262, (+/−) 2-((2-chloro-5-(difluoromethyl)-3-(3-((3-hydroxy-2-methoxypropyl)amino)-1-azetidinyl)phenyl)amino)-4-(cyclopropylamino)imidazo[2,1-f][1,2,4]triazine-7-carbonitrile] | 5
9 | C[C@@H](N)C(=O)N1CCC(c2cc(C#N)cc(Nc3nc(NC4CC4)c4ncc(C#N)n4n3)c2Cl)CC1 [Example 241, 2-((3-(1-D-alanyl-4-piperidinyl)-2-chloro-5-cyanophenyl)amino)-4-(cyclopropylamino)imidazo[2,1-f][1,2,4]triazine-7-carbonitrile] | 0.59
10 | C[N+]1([O-])CCN(C2CN(c3cc(C#N)cc(Nc4nc(NC5CC5)c5ncc(C#N)n5n4)c3Cl)C2)CC1 [Example 169, 2-((2-chloro-5-cyano-3-(3-(4-methyl-4-oxido-1-piperazinyl)-1-azetidinyl)phenyl)amino)-4-(cyclopropylamino)imidazo [2,1-f][1,2,4]triazine-7-carbonitrile] | 2.59
11 | N#Cc1cnc2c(NC3CC3)nc(Nc3cc(C(N)=O)cc(N4CC(NC5COC5)C4)c3Cl)nn12 [Example 166, 4-chloro-3-((7-cyano-4-(cyclopropylamino)imidazo [2,1-f][1,2,4]triazin-2-yl)amino)-5-(3-(3-oxetanylamino)-1-azetidinyl)benzamide] | 0.44

Now from value to compound:

Row | IC50 [nM] | Structure (SMILES)
12 | 1.66 | N#Cc1cc(CN2CCN(CCO)CC2)c(Cl)c(Nc2nc(NC3CC3)c3ncc(C#N)n3n2)c1 [Example 465, 2-[(2-chloro-5-cyano-3-{[4-(2-hydroxyethyl)piperazin-1-yl]methyl}phenyl)amino]-4-(cyclopropylamino)imidazo[2,1-f][1,2,4]triazine-7-carbonitrile]
13 | 3.2 | N#Cc1cc(Nc2nc(NC3CC3)c3ncc(C#N)n3n2)c(Cl)c(N2CCC(C3COC3)CC2)c1 [Example 525, 2-((2-chloro-5-cyano-3-(4-(oxetan-3-yl)piperidin-1-yl)phenyl)amino)-4-(cyclopropylamino)imidazo[2,1-f][1,2,4]triazine-7-carbonitrile]
14 | 0.42 | N#Cc1cc(Nc2nc(NC3CC3)c3ncc(C#N)n3n2)c(Cl)c(N2CCC(C(CO)CO)CC2)c1 [Example 526, 2-((2-chloro-5-cyano-3-(4-(1,3-dihydroxypropan-2-yl)piperidin-1-yl)phenyl)amino)-4-(cyclopropylamino)imidazo[2,1-f][1,2,4]triazine-7-carbonitrile]
15 | 1 | CCNc1nc(Nc2cc(C#N)cc(N3CC[C@@H](NC(=O)OC)[C@H](OC(=O)[C@@H](N)Cc4cnc[nH]4)C3)c2Cl)nn2c(C#N)cnc12 [Example 809, (S)-(3R,4R)-1-(2-chloro-5-cyano-3-((7-cyano-4-(ethylamino)imidazo[2,1-f][1,2,4]triazin-2-yl)amino)phenyl)-4-((methoxycarbonyl)amino)piperidin-3-yl 2-amino-3-(1H-imidazol-5-yl)propanoate dihydrochloride]
16 | 1.91 | CC1(C)CC(CN2CCN(c3cc(C#N)cc(Nc4nc(NC5CC5)c5ncc(C#N)n5n4)c3Cl)CC2)O1 (centres unmarked) [Example 527, 2-((2-chloro-5-cyano-3-(4-((4,4-dimethyloxetan-2-yl)methyl)piperazin-1-yl)phenyl)amino)-4-(cyclopropylamino)imidazo[2,1-f][1,2,4]triazine-7-carbonitrile]
17 | 3.82 | CCNc1nc(Nc2cc(C#N)cc(N3CC[C@@H](NC(=O)OC)[C@H](OC(=O)[C@@H](N)[C@@H](C)O)C3)c2Cl)nn2c(C#N)cnc12 [Example 810, (2S,3R)-(3R,4R)-1-(2-chloro-5-cyano-3-((7-cyano-4-(ethylamino)imidazo[2,1-f][1,2,4]triazin-2-yl)amino)phenyl)-4-((methoxycarbonyl)amino)piperidin-3-yl 2-amino-3-hydroxybutanoate hydrochloride]
18 | 1.51 | CC(CCc1cc(Cl)c(Nc2nc(NC3CC3)c3ncc(C#N)n3n2)cc1C#N)N1CC(O)C1 (centres unmarked) [Example 724, 2-({2-chloro-5-cyano-4-[3-(3-hydroxyazetidin-1-yl)butyl]phenyl}amino)-4-(cyclopropylamino)imidazo [2,1-f][1,2,4]triazine-7-carbonitrile]
19 | 1.35 | CC(Cc1cc(Cl)c(Nc2nc(NC3CC3)c3ncc(C#N)n3n2)cc1C#N)CN1CCOCC1 (centres unmarked) [Example 721, 2-({2-chloro-5-cyano-4-[2-(morpholin-4-ylmethyl)propyl]phenyl}amino)-4-(cyclopropylamino)imidazo [2,1-f][1,2,4]triazine-7-carbonitrile]
20 | 0.53 | N#Cc1cc(Nc2nc(NC3CC3)c3ncc(C#N)n3n2)c(Cl)c(N2CCN(CC(N)=O)CC2)c1 [Example 600, 2-[4-(2-chloro-5-cyano-3-{[7-cyano-4-(cyclopropylamino)imidazo[2,1-f][1,2,4]triazin-2-yl]amino}phenyl)piperazin-1-yl]acetamide]
21 | 0.37 | CCNc1nc(Nc2cc(C#N)cc(N3CC[C@@H](NC(=O)OC)[C@H](OC(=O)[C@@H](C)OP(=O)(O)O)C3)c2Cl)nn2c(C#N)cnc12 [Example 342, (R)-(3R,4R)-1-(2-chloro-5-cyano-3-((7-cyano-4-(ethylamino)imidazo[2,1-f][1,2,4]triazin-2-yl)amino)phenyl)-4-((methoxycarbonyl)amino)piperidin-3-yl 2-(phosphonooxy)propanoate]
22 | 0.49 | N#Cc1cc(CN2CC(O)C2)c(Cl)c(Nc2nc(NC3CC3)c3ncc(C#N)n3n2)c1 [Example 673, 2-((2-chloro-5-cyano-3-((3-hydroxyazetidin-1-yl)methyl)phenyl)amino)-4-(cyclopropylamino)imidazo[2,1-f][1,2,4]triazine-7-carbonitrile]
23 | 0.38 | CS(=O)(=O)N1CCN(Cc2cc(C#N)cc(Nc3nc(NC4CC4)c4ncc(C#N)n4n3)c2Cl)CC1 [Example 401, 2-((2-chloro-5-cyano-3-((4-(methylsulfonyl)piperazin-1-yl)methyl)phenyl)amino)-4-(cyclopropylamino)imidazo[2,1-f][1,2,4]triazine-7-carbonitrile]
24 | 0.95 | COCCNCC(O)c1cc(C#N)cc(Nc2nc(NC3CC3)c3ncc(C#N)n3n2)c1Cl (centres unmarked) [Example 685, 2-((2-chloro-5-cyano-3-(1-hydroxy-2-((2-methoxyethyl)amino)ethyl)phenyl)amino)-4-(cyclopropylamino)imidazo[2,1-f][1,2,4]triazine-7-carbonitrile]
25 | 1.58 | CCNc1nc(Nc2cc(C#N)cc(N3CCN(C4CN(CC(O)CF)C4)CC3)c2Cl)nn2c(C#N)cnc12 (centres unmarked) [Example 586, 2-[(2-chloro-5-cyano-3-{4-[1-(3-fluoro-2-hydroxypropyl)azetidin-3-yl]piperazin-1-yl}phenyl)amino]-4-(ethylamino)imidazo[2,1-f][1,2,4]triazine-7-carbonitrile]
26 | 28.2 | CCOC(=O)C1CCN(c2cc(C(F)F)cc(Nc3nc(NC4CC4)c4ncc(C#N)n4n3)c2Cl)CC1 [Example 544, ethyl 1-(2-chloro-3-((7-cyano-4-(cyclopropylamino)imidazo[2,1-f][1,2,4]triazin-2-yl)amino)-5-(difluoromethyl)phenyl)piperidine-4-carboxylate]

Source: patent US9273057B2 (Bristol-Myers Squibb Company, priority 2012, dated 2016)
